Molecules are shown by their SMILES.

In this assay the target is T1, androgen receptor (AR) (Homo sapiens, UniProt P10275, T878A).
T1 construct: LNCaP cells expressing ARR2PB-FireflyLuc and CMV-RenillaLuc; endogenous in cells; host or cells: LNCaP cells carrying ARR2PB-FireflyLuc and CMV-RenillaLuc reporters
T1 sequence (P10275 1-920 T878A): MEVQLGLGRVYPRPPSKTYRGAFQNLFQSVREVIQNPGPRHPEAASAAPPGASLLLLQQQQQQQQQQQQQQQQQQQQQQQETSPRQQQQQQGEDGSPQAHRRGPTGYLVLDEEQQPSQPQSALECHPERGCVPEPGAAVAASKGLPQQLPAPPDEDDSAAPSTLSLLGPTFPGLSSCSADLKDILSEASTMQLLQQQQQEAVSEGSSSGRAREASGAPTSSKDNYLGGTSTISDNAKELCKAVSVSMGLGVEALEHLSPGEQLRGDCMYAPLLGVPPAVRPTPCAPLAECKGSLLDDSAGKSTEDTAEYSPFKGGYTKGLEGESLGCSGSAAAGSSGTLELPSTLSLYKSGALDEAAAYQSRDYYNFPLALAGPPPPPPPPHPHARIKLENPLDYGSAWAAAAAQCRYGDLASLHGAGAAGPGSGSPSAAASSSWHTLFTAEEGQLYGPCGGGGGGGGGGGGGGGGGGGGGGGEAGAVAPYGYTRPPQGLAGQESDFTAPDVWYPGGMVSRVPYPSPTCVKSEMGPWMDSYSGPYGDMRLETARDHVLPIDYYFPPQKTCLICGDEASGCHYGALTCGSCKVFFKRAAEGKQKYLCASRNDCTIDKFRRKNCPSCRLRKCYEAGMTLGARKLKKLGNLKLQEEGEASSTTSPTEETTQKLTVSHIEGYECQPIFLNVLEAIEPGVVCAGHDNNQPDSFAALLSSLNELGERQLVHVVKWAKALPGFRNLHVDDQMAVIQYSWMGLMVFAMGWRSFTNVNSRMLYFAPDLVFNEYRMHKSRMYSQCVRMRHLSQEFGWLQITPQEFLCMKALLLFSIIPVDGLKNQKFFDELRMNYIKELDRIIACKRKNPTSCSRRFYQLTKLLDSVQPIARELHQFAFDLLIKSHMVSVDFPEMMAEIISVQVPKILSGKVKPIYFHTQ
Briefly: AR reporter assay in LNCaP cells expressing ARR2PB-FireflyLuc and CMV-RenillaLuc, antagonist mode (% remaining activity, IC50). The conditions noted are these: 48 h at 37° C., class symbols A-D, read-out: IC50. Format: cell-based. The method, boiled down:
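LNCaP cells carrying ARR2PB-firefly and CMV-Renilla luciferase reporters were treated 48 h at 37 °C with compound plus 0.5 nM DHT. Signals were normalised between 0.5 nM DHT alone and 10 uM enzalutamide + DHT to give % remaining activity, and IC50 was obtained by non-linear regression.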
In general terms: In a reporter assay the amount or activity of a reporter protein is the signal.
By IC50 is commonly meant the point on the concentration scale where inhibition reaches its midpoint. Consider `Cc1nc(-c2c[nH]c3c(C#N)cccc23)cnc1NC1CCCNC1` (stereo not shown) [Compound 232], for which the IC50 was greater than 10 µM.
Under `N#Cc1cccc2c(-c3cccc(OC4CCNC4)n3)c[nH]c12` (stereo not shown) [Compound 168] stands greater than 10 µM.
`CC1(C)NC(=O)c2ccc(-c3c[nH]c4c(C#N)cccc34)cc21` [Compound 264]: the IC50 lay in the range of 0.1 to 1 µM.
As for `CC1(C)CCNc2ccc(-c3n[nH]c4ccccc34)nc21` [Compound 77], the IC50 lay within 0.1 to 1 µM.
In the case of `Cc1nc(-c2c[nH]c3c(C#N)cccc23)cnc1NC1CCNCC1` [Compound 231], the IC50 is greater than 10 µM.
The same measure for `Cc1nc(-c2c[nH]c3c(C#N)cccc23)cnc1OCC(C)(C)O` [Compound 301]: less than 0.1 µM; for `c1ccc2c(-c3ccc4c(n3)CCCN4)n[nH]c2c1` [Compound 9]: 0.1 to 1 µM.
For the compound `CN1C(=O)c2ccc(-c3c[nH]c4c(C(F)(F)F)cccc34)nc2C1(C)C` [Compound 188], the IC50 lay within 0.1 to 1 µM.
Under `N#Cc1cccc2c(-c3ccc4ccc(F)cc4n3)n[nH]c12` [Compound 63] stands less than 0.1 µM.
`CC1NC(=O)c2ccc(-c3n[nH]c4ccccc34)cc21` (stereo not shown) [Compound 109]: the IC50 fell in the range of 0.1 to 1 µM.
The same measure for `Cc1nc(-c2coc3ccccc23)cnc1OCC(C)(C)O` [Compound 338]: greater than 10 µM; for `CC(=O)N1CCC(Oc2ncc(-c3c[nH]c4ncccc34)nc2C)C1` (stereo not shown) [Compound 292]: greater than 10 µM; for `COc1nccc2nc(-c3n[nH]c4ccccc34)ccc12` [Compound 12]: less than 0.1 µM.
Under `COc1ccc(-c2c[nH]c3c(C#N)cccc23)nc1C` [Compound 166] stands less than 0.1 µM; under `Cc1nc(-c2c[nH]c3c(C(F)(F)F)cccc23)cnc1N` [Compound 186], 0.1 to 1 µM; under `FC(F)(F)c1ccc(-c2c[nH]c3ccccc23)nc1` [Compound 118], 0.1 to 1 µM.
Under `Fc1cc2[nH]nc(-c3ccc4c(-c5nnco5)cccc4n3)c2cc1F` [Compound 35] stands less than 0.1 µM; under `CC(C)c1nc(-c2n[nH]c3cc(F)c(F)cc23)ccc1N` [Compound 88], 1 to 10 µM; under `Cc1nc(-c2c[nH]c3c(C#N)cccc23)cnc1OC1CNC(C)(C)C1` (stereo not shown) [Compound 284], greater than 10 µM.
Turning to `COc1ccc2c(-c3ccc(N)c(C)n3)c[nH]c2c1C#N` [Compound 211], the IC50 is greater than 10 µM.
Turning to `CCNc1ccc(-c2n[nH]c3cc(F)c(F)cc23)nc1C` [Compound 95], the IC50 is 1 to 10 µM.
Under `Cc1nc(-c2c[nH]c3c(C#N)c(F)ccc23)ccc1N` [Compound 210] stands less than 0.1 µM.
For the compound `COCC(=O)N1CCC(Oc2ncc(-c3c[nH]c4c(C#N)cccc34)nc2C)C1` (stereo not shown) [Compound 318], the IC50 was in the range of 0.1 to 1 µM.
On to `Cc1cccc(-c2c[nH]c3cc(C#N)ccc23)n1` [Compound 161], for which the IC50 was in the range of 1 to 10 µM.
Under `Cc1nc(-c2c[nH]c3c(C#N)cccc23)cnc1OC1CCCNC1` (stereo not shown) [Compound 234] stands greater than 10 µM; under `Cc1nc(-c2c[nH]c3c(C(F)(F)F)cccc23)cnc1OC1CCNC1` (stereo not shown) [Compound 198], 0.1 to 1 µM; under `CNC(=O)N1CCCc2nc(-c3n[nH]c4cc(F)c(F)cc34)ccc21` [Compound 38], 1 to 10 µM.
Regarding `Cc1cc(-c2n[nH]c3cc(F)c(F)cc23)nc2c1NC(=O)CC2` [Compound 80], the IC50 lay within 1 to 10 µM.
The same measure for `c1ccc(-c2cc(-c3ccc4c(n3)CCCN4)n[nH]2)cc1` [Compound 81]: greater than 10 µM; for `CC1(C)NC(=O)c2ccc(-c3n[nH]c4cc(F)c(F)cc34)cc21` [Compound 110]: greater than 10 µM.
The same measure for `N#Cc1cccc2c(-c3ccc(OC4CCNC4)c(F)c3)c[nH]c12` (stereo not shown) [Compound 229]: 0.1 to 1 µM; for `CC(=O)N1CCC(Oc2cnc(-c3c[nH]c4c(C#N)cccc34)cn2)C1` (stereo not shown) [Compound 290]: 1 to 10 µM.
For `Cc1nc(-c2c[nH]c3c(C(F)(F)F)cccc23)ccc1N` [Compound 159], the IC50 lay in the range of 0.1 to 1 µM.
As to `Cc1cc(F)cc2c(-c3ccc4c(n3)CCCN4)n[nH]c12` [Compound 43], the IC50 is 0.1 to 1 µM.
The same measure for `Cc1nc(OC2C3CNCC32)cnc1-c1c[nH]c2c(C#N)cccc12` (stereo not shown) [Compound 225]: greater than 10 µM; for `CC1(C)NC(=O)c2ccc(-c3c[nH]c4ncccc34)nc21` [Compound 315]: 0.1 to 1 µM; for `COc1nc(-c2c[nH]c3c(C#N)cccc23)cnc1N[C@@H]1CCN(C(C)=O)C1` [Compound 289]: less than 0.1 µM.
The same measure for `COCC(C)Nc1ccc(-c2c[nH]c3c(C#N)cccc23)nc1C` (stereo not shown) [Compound 221]: 0.1 to 1 µM; for `Cc1nc(-c2c[nH]c3c(C#N)cccc23)ccc1NC1CCOC1` (stereo not shown) [Compound 164]: 0.1 to 1 µM; for `COc1ccc(-c2n[nH]c3cc(F)c(F)cc23)nc1C` [Compound 99]: 0.1 to 1 µM.
The same measure for `Cc1nc(-c2c[nH]c3c(C#N)cccc23)cnc1OCC1(O)CC1` [Compound 333]: greater than 10 µM; for `Cc1nc(-c2c[nH]c3c(C#N)cccc23)cnc1O[C@@H]1CN[C@@H](C)C1` [Compound 330]: greater than 10 µM.
Regarding `CC1(C)c2nc(-c3c[nH]c4c(C#N)cccc34)ccc2C(=O)N1CCCO` [Compound 235], the IC50 is greater than 10 µM.
The same measure for `Fc1cc2[nH]nc(-c3ccc4ncccc4n3)c2cc1F` [Compound 26]: less than 0.1 µM; for `CC1(C)NC(=O)c2ccc(-c3c[nH]c4cc(F)ccc34)nc21` [Compound 216]: 0.1 to 1 µM.
Under `Cc1nc(-c2c[nH]c3c(C#N)cccc23)cnc1SC1CCNC1` (stereo not shown) [Compound 281] stands 1 to 10 µM.
`CC(=O)N(C)CCOc1ncc(-c2c[nH]c3c(Cl)cccc23)nc1C` [Compound 263]: the IC50 was 0.1 to 1 µM.
Under `N#Cc1cccc2c(-c3cccc(N4CCC4)n3)c[nH]c12` [Compound 178] stands 0.1 to 1 µM; under `Cc1nc(-c2c[nH]c3c(C#N)cccc23)cnc1OC1CCN(C)C1` (stereo not shown) [Compound 193], 1 to 10 µM.
Consider `CNC(=O)c1cccc2c(-c3ccc(N)c(C)n3)c[nH]c12` [Compound 145], for which the 50% inhibitory concentration (IC50) is greater than 10 µM.
The same measure for `Fc1ccc(-c2c[nH]c3ncccc23)nc1` [Compound 126]: 0.1 to 1 µM.
Regarding `CCc1nc(-c2c[nH]c3c(C#N)cccc23)cnc1OC1CCNC1` (stereo not shown) [Compound 249], the IC50 was greater than 10 µM.
The same measure for `COCC(COC)Nc1ncc(-c2c[nH]c3c(C#N)cccc23)nc1C` [Compound 228]: greater than 10 µM; for `CN(C)c1ccc2[nH]nc(-c3ccc4ccccc4n3)c2c1` [Compound 3]: greater than 10 µM; for `Cc1nc(-c2c[nH]c3c(C#N)cccc23)cnc1OC1CCNC1` (stereo not shown) [Compound 183]: 0.1 to 1 µM.
Under `Cc1nc(-c2c[nH]c3c(C#N)cccc23)cnc1OCC1(C)COC1` [Compound 325] stands 0.1 to 1 µM; under `Cc1nc(-c2c[nH]c3c(C#N)cccc23)ccc1NCCN(C)C` [Compound 196], 1 to 10 µM.
The same measure for `Fc1cc2[nH]nc(-c3ccc4c(n3)CCNC4)c2cc1F` [Compound 30]: greater than 10 µM; for `CC(C)(O)c1ccc(-c2n[nH]c3cc(F)c(F)cc23)cn1` [Compound 73]: greater than 10 µM; for `N#Cc1cccc2c(-c3cnc(N)c(OC(F)F)n3)c[nH]c12` [Compound 172]: less than 0.1 µM.
Take `c1ccc2nc(-c3n[nH]c4ccc(N5CCOCC5)cc34)ccc2c1` [Compound 1]: the IC50 was 1 to 10 µM.
The same measure for `Cc1nccc2nc(-c3n[nH]c4ccccc34)ccc12` [Compound 19]: less than 0.1 µM; for `CC(=O)N1CCCc2nc(-c3n[nH]c4cc(F)c(F)cc34)ccc21` [Compound 25]: 0.1 to 1 µM.
Under `Fc1cc2[nH]nc(-c3ccc4c(n3)NCCO4)c2cc1F` [Compound 74] stands 1 to 10 µM; under `Fc1cc2[nH]nc(-c3ccc4c(n3)COCC4)c2cc1F` [Compound 39], 1 to 10 µM; under `c1cnc2[nH]cc(-c3ccc(C4COC4)cn3)c2c1` [Compound 129], 1 to 10 µM.
`FC(F)(F)c1ccc(-c2n[nH]c3ccccc23)nc1` [Compound 61]: the IC50 was in the range of 1 to 10 µM.
Consider `COCCOc1ccc(-c2c[nH]c3c(C#N)cccc23)nc1C` [Compound 165], for which the IC50 lay within 0.1 to 1 µM.
Under `Fc1ccc(-c2c[nH]c3cc(F)cnc23)nc1` [Compound 202] stands 0.1 to 1 µM.
Under `Cc1cc(-c2n[nH]c3cc(F)c(F)cc23)nc2c1NCCC2` [Compound 59] stands 0.1 to 1 µM.
